Experiment in all cases: relative viability (nuclei count vs DMSO), 5 days (fraction); higher = more cells survive
Compound in assay [1]: CN(c1ncccc1CNc1nc(Nc2ccc3c(c2)CC(=O)N3)ncc1C(F)(F)F)S(C)(=O)=O + CCNC(=O)c1noc(-c2cc(C(C)C)c(O)cc2O)c1-c1ccc(CN2CCOCC2)cc1 [Luminespib] (partner 0.01 µM)
In a few lines:
(§1)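 Lung cancer cell lines were seeded in 1536-well plates and dosed by pin tool the next day, with either a single drug or a fixed anchor-drug dose combined with five library-drug doses (not always all listed) spaced in √10 steps. Five days later, one step fixed the cells and stained their nuclei (final 0.05% Triton X-100, 1% formaldehyde, 1 ug/ml Hoechst), and nuclei were counted on 4× images. Relative viability is the nuclei count in treated wells divided by the count in vehicle wells, and each value is the median of duplicate plates.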

Compound in assay [2]: CN(c1ncccc1CNc1nc(Nc2ccc3c(c2)CC(=O)N3)ncc1C(F)(F)F)S(C)(=O)=O + COc1cc2c(Oc3ccc(NC(=O)C4(C(=O)Nc5ccc(F)cc5)CC4)cc3F)ccnc2cc1OCCCN1CCOCC1 [Foretinib] (partner 0.25 µM)
The method in brief:
as §1

Compound in assay [3]: CN(c1ncccc1CNc1nc(Nc2ccc3c(c2)CC(=O)N3)ncc1C(F)(F)F)S(C)(=O)=O + Cc1nc(Nc2ncc(C(=O)Nc3c(C)cccc3Cl)s2)cc(N2CCN(CCO)CC2)n1 [Dasatinib] (partner 0.075 µM)
The method in brief:
as §1

Compound in assay [4]: CN(c1ncccc1CNc1nc(Nc2ccc3c(c2)CC(=O)N3)ncc1C(F)(F)F)S(C)(=O)=O + Nc1ncn([C@H]2C[C@H](O)[C@@H](CO)O2)c(=O)n1 [Decitabine] (partner 2 µM)
In a few lines: as §1

201T: the relative viability in assay [1] (first compound 0.01 µM) is 1.05; in assay [1] (first compound 0.03162 µM), 1; in assay [1] (first compound 0.1 µM), 0.945; in assay [1] (first compound 0.3162 µM) it was 0.986; in assay [1] (first compound 1 µM), 0.951; in assay [2] (first compound 0.01 µM), 1.06. The relative viability in assay [2] (first compound 0.03162 µM) was 1.09; in assay [2] (first compound 0.1 µM), 1.09; in assay [2] (first compound 0.3162 µM), 0.928; in assay [2] (first compound 1 µM) it was 1.02; in assay [3] (first compound 0.01 µM), 0.602; in assay [3] (first compound 0.03162 µM), 0.55. Moreover, the relative viability in assay [3] (first compound 0.1 µM) was 0.45; in assay [3] (first compound 0.3162 µM), 0.538; in assay [3] (first compound 1 µM) it was 0.517; in assay [4] (first compound 0.01 µM), 0.846; in assay [4] (first compound 0.03162 µM), 0.856; in assay [4] (first compound 0.1 µM), 0.808. In addition, the relative viability in assay [4] (first compound 0.3162 µM) was 0.85; in assay [4] (first compound 1 µM), 0.771.
A549: the relative viability worked out at 0.995 in assay [2] (first compound 0.01 µM); 0.948 in assay [2] (first compound 0.03162 µM); 0.958 in assay [2] (first compound 0.1 µM); 0.945 in assay [2] (first compound 0.3162 µM); 0.933 in assay [2] (first compound 1 µM); 0.271 in assay [4] (first compound 0.01 µM). Further, the relative viability came out at 0.258 in assay [4] (first compound 0.03162 µM), 0.285 in assay [4] (first compound 0.1 µM), 0.257 in assay [4] (first compound 0.3162 µM) and 0.257 in assay [4] (first compound 1 µM).
Consider A-427, for which the relative viability in assay [1] (first compound 0.01 µM) amounted to 0.908; in assay [1] (first compound 0.03162 µM) it was 1.1; in assay [1] (first compound 0.1 µM), 0.832; in assay [1] (first compound 0.3162 µM), 0.921; in assay [1] (first compound 1 µM), 0.905; in assay [2] (first compound 0.01 µM) it was 1.04. Besides, the relative viability turned out to be 1.18 in assay [2] (first compound 0.03162 µM); 1.01 in assay [2] (first compound 0.1 µM); 1.16 in assay [2] (first compound 0.3162 µM); 1.07 in assay [2] (first compound 1 µM); 0.628 in assay [3] (first compound 0.01 µM); 0.864 in assay [3] (first compound 0.03162 µM). The relative viability was 0.713 in assay [3] (first compound 0.1 µM); 0.823 in assay [3] (first compound 0.3162 µM); 0.725 in assay [3] (first compound 1 µM); 0.549 in assay [4] (first compound 0.01 µM); 0.568 in assay [4] (first compound 0.03162 µM); 0.588 in assay [4] (first compound 0.1 µM). Moreover, the values for the relative viability in assay [4] (first compound 0.3162 µM) and in assay [4] (first compound 1 µM) were 0.664 and 0.61, respectively.
In the case of ABC-1, the relative viability is 0.557 in assay [1] (first compound 0.01 µM); 0.985 in assay [1] (first compound 0.03162 µM); 0.511 in assay [1] (first compound 0.1 µM); 0.524 in assay [1] (first compound 0.3162 µM); 0.516 in assay [1] (first compound 1 µM); 1.11 in assay [2] (first compound 0.01 µM). Besides, the relative viability in assay [2] (first compound 0.03162 µM) was found to be 1.2; in assay [2] (first compound 0.1 µM) it was 1.01; in assay [2] (first compound 0.3162 µM), 0.92; in assay [2] (first compound 1 µM), 0.936; in assay [3] (first compound 0.01 µM), 0.574; in assay [3] (first compound 0.03162 µM), 0.633. The relative viability came to 0.559 in assay [3] (first compound 0.1 µM); 0.54 in assay [3] (first compound 0.3162 µM); 0.587 in assay [3] (first compound 1 µM); 1.01 in assay [4] (first compound 0.01 µM); 1.17 in assay [4] (first compound 0.03162 µM); 0.949 in assay [4] (first compound 0.1 µM). In addition, the relative viability in assay [4] (first compound 0.3162 µM) is 0.944; in assay [4] (first compound 1 µM) it was 1.09.
Regarding BEN, the relative viability in assay [1] (first compound 0.01 µM) turned out to be 0.392; in assay [1] (first compound 0.03162 µM), 0.313; in assay [1] (first compound 0.1 µM), 0.863; in assay [1] (first compound 0.3162 µM) it was 0.289; in assay [1] (first compound 1 µM), 0.328; in assay [2] (first compound 0.01 µM), 0.815. Further, the relative viability in assay [2] (first compound 0.03162 µM) worked out at 0.608; in assay [2] (first compound 0.1 µM) it was 0.618; in assay [2] (first compound 0.3162 µM) it was 0.587; in assay [2] (first compound 1 µM), 0.845; in assay [3] (first compound 0.01 µM), 0.319; in assay [3] (first compound 0.03162 µM), 0.312. Also, the relative viability in assay [3] (first compound 0.1 µM) came to 0.272; in assay [3] (first compound 0.3162 µM) it was 0.289; in assay [3] (first compound 1 µM), 0.267; in assay [4] (first compound 0.01 µM), 0.739; in assay [4] (first compound 0.03162 µM), 0.739; in assay [4] (first compound 0.1 µM), 0.715. Besides, the results for the relative viability in assay [4] (first compound 0.3162 µM) and in assay [4] (first compound 1 µM) were 0.763 and 0.671, respectively.
Regarding CAL-12T, the relative viability turned out to be 0.284 in assay [1] (first compound 0.01 µM); 0.55 in assay [1] (first compound 0.03162 µM); 0.451 in assay [1] (first compound 0.1 µM); 0.258 in assay [1] (first compound 0.3162 µM); 0.277 in assay [1] (first compound 1 µM); 1.32 in assay [2] (first compound 0.01 µM). The relative viability in assay [2] (first compound 0.03162 µM) amounted to 1.2; in assay [2] (first compound 0.1 µM), 1.1; in assay [2] (first compound 0.3162 µM), 1.1; in assay [2] (first compound 1 µM), 0.838; in assay [3] (first compound 0.01 µM), 0.35; in assay [3] (first compound 0.03162 µM) it was 0.213. Further, the relative viability in assay [3] (first compound 0.1 µM) was 0.268; in assay [3] (first compound 0.3162 µM), 0.191; in assay [3] (first compound 1 µM) it was 0.136.
As to COR-L23, the relative viability in assay [1] (first compound 0.01 µM) stood at 0.622; in assay [1] (first compound 0.03162 µM) it was 1; in assay [1] (first compound 0.1 µM), 0.656; in assay [1] (first compound 0.3162 µM), 0.734; in assay [1] (first compound 1 µM), 0.41; in assay [2] (first compound 0.01 µM), 1.07. The relative viability worked out at 1.15 in assay [2] (first compound 0.03162 µM); 0.937 in assay [2] (first compound 0.1 µM); 0.921 in assay [2] (first compound 0.3162 µM); 0.851 in assay [2] (first compound 1 µM); 0.458 in assay [3] (first compound 0.01 µM); 0.524 in assay [3] (first compound 0.03162 µM). The relative viability in assay [3] (first compound 0.1 µM) was 0.483; in assay [3] (first compound 0.3162 µM) it was 0.413; in assay [3] (first compound 1 µM), 0.323; in assay [4] (first compound 0.01 µM) it was 0.417; in assay [4] (first compound 0.03162 µM), 0.493; in assay [4] (first compound 0.1 µM), 0.44. Moreover, the relative viability turned out to be 0.503 in assay [4] (first compound 0.3162 µM) and 0.399 in assay [4] (first compound 1 µM).
For the cell line COR-L 105, the relative viability stood at 0.691 in assay [1] (first compound 0.01 µM); 0.712 in assay [1] (first compound 0.03162 µM); 0.809 in assay [1] (first compound 0.1 µM); 0.766 in assay [1] (first compound 0.3162 µM); 0.526 in assay [1] (first compound 1 µM); 1 in assay [2] (first compound 0.01 µM). Further, the relative viability in assay [2] (first compound 0.03162 µM) stood at 1.27; in assay [2] (first compound 0.1 µM), 0.989; in assay [2] (first compound 0.3162 µM), 0.848; in assay [2] (first compound 1 µM) it was 0.773; in assay [3] (first compound 0.01 µM), 0.274; in assay [3] (first compound 0.03162 µM), 0.25. The relative viability in assay [3] (first compound 0.1 µM) is 0.343; in assay [3] (first compound 0.3162 µM) it was 0.282; in assay [3] (first compound 1 µM), 0.288; in assay [4] (first compound 0.01 µM), 0.762; in assay [4] (first compound 0.03162 µM) it was 0.68; in assay [4] (first compound 0.1 µM), 0.728. For the same cell line, the relative viability turned out to be 0.733 in assay [4] (first compound 0.3162 µM) and 0.697 in assay [4] (first compound 1 µM).
As to Calu-6, the relative viability in assay [2] (first compound 0.01 µM) is 0.936; in assay [2] (first compound 0.03162 µM), 0.989; in assay [2] (first compound 0.1 µM) it was 0.808; in assay [2] (first compound 0.3162 µM), 0.955; in assay [2] (first compound 1 µM), 0.812.

(Values after the supplement of paper PMC10307832.)
